# Experimental data taken from patent publication US12540131B2 (Merck Sharp & Dohme LLC, priority 2019, dated 2026).
# Target: GST tagged truncated human mutant G2019S LRRK2 (Homo sapiens (Human), UniProt Q5S007, G2019S)
# Assay: LRRK2 Km ATP LanthaScreen Assay
# Format: biochemical
# Details: G2019S LRRK2, 134 μM ATP (Km ATP), mean values
# Experimental: General Experimental Information: • Unless otherwise noted, all reactions are magnetically stirred. Unless otherwise noted, when diethyl ether is used in the experiments described below, it is Fisher ACS certified material and is stabilized with BHT. Unless otherwise noted, “concentrated” and/or “solvent removed under reduced pressure” means evaporating the solvent from a solution or mixture using a rotary evaporator or vacuum pump. Unless otherwise noted, flash chromatography is carried out on a Teledyne Isco (Lincoln, NE), Analogix (Burlington, WI), or Biotage (Stockholm, SWE) automated chromatography system using a commercially available cartridge as the column. Columns may be purchased from Teledyne Isco, Analogix, Biotage, Varian (Palo Alto, CA), or Supelco (Bellefonte, PA) and are usually filled with silica gel as the stationary phase. Reverse phase prep-HPLC conditions, where used, can be found at the end of each experimental section. Aqueous solutions were concentrated on a Genevac (Ipswich, ENG) or by freeze-drying/lyophilization. Unless otherwise noted, all LRRK2 pIC50 data presented in tables refers to the LRRK2 G2019S Km ATP LanthaScreen™ assay (Life Technologies Corp., Carlsbad, CA) that is described in the Biological Assay section.
# The pIC50 values reported herein were measured as follows.
# Biological Assay: LRRK2 Km ATP LanthaScreen™ Assay
# Compound potency against LRRK2 kinase activity was determined using LanthaScreen™ technology from Life Technologies Corporation (Carlsbad, CA) using a GST20 tagged truncated human mutant G2019S LRRK2 in the presence of the fluorescein-labeled peptide substrate LRRKtide® (LRRK2 phosphorylated ezrin/radixin/moesin (ERM)), also from Life Technologies. The data presented for the Km ATP LanthaScreen™ Assay represents mean IC50 values based on several test results and may have reasonable deviations depending on the specific conditions and reagents used. Km is the Michaelis constant of an enzyme and is defined as the concentration of native substrate (ATP for a kinase) which permits the enzyme to achieve half Vmax (Vmax=rate of reaction when the enzyme is saturated with substrate). IC50 (half-maximal inhibitory concentration) represents the concentration of inhibitor required to inhibit LRRK2 kinase activity by 50%. Assays were performed in the presence of 134 μM ATP (Km ATP). Upon completion, the assay was stopped, and phosphorylated substrate detected with a terbium (Tb)-labeled anti-pERM antibody (cat. no. PV4898). The compound dose response was prepared by diluting a 10 mM stock of compound to a maximum concentration of 9.99 μM in 100% DMSO, followed by custom fold serial dilution in DMSO nine times. 20 nL of each dilution was spotted via a Labcyte Echo onto a 384-well black-sided plate (Corning 3575) followed by 15 μl of a 1.25 nM enzyme solution in 1× assay buffer (50 mM Tris pH 8.5, 10 mM MgCl2, 0.01% Brij-35, 1 mM EGTA, 2 mM dithiothreitol, 0.05 mM sodium orthovanadate). Following a 15-minute incubation period at RT, the kinase reaction was started with the addition of 5 μl of 400 nM fluorescein-labeled LRRKtide® (LRRK2 phosphorylated ezrin/radixin/moesin (ERM)) peptide substrate and 134 μM ATP solution in 1× assay buffer. The reaction was allowed to progress at ambient temperature for 90 minutes. The reaction was then stopped by the addition of 20 μl of TR-FRET Dilution Buffer (Life Technologies, Carlsbad, CA) containing 2 nM Tb-labeled anti-phospho LRRKtide® (LRRK2 phosphorylated ezrin/radixin/moesin (ERM)) antibody and 10 mM EDTA (Life Technologies, Carlsbad, CA). After an incubation period of 1 h at RT, the plate was read on an EnVision® multimode plate reader (Perkin Elmer, Waltham, MA) with an excitation wavelength of 337 nm (Laser) and a reading emission at both 520 and 495 nm. Compound IC50 values were interpolated from nonlinear regression best-fits of the log of the final compound concentration, plotted as a function of the 520/495-nm emission ratio using activity base “Abase”). […]
# Chain of GST tagged truncated human mutant G2019S LRRK2 (Q5S007 970-2527 G2019S): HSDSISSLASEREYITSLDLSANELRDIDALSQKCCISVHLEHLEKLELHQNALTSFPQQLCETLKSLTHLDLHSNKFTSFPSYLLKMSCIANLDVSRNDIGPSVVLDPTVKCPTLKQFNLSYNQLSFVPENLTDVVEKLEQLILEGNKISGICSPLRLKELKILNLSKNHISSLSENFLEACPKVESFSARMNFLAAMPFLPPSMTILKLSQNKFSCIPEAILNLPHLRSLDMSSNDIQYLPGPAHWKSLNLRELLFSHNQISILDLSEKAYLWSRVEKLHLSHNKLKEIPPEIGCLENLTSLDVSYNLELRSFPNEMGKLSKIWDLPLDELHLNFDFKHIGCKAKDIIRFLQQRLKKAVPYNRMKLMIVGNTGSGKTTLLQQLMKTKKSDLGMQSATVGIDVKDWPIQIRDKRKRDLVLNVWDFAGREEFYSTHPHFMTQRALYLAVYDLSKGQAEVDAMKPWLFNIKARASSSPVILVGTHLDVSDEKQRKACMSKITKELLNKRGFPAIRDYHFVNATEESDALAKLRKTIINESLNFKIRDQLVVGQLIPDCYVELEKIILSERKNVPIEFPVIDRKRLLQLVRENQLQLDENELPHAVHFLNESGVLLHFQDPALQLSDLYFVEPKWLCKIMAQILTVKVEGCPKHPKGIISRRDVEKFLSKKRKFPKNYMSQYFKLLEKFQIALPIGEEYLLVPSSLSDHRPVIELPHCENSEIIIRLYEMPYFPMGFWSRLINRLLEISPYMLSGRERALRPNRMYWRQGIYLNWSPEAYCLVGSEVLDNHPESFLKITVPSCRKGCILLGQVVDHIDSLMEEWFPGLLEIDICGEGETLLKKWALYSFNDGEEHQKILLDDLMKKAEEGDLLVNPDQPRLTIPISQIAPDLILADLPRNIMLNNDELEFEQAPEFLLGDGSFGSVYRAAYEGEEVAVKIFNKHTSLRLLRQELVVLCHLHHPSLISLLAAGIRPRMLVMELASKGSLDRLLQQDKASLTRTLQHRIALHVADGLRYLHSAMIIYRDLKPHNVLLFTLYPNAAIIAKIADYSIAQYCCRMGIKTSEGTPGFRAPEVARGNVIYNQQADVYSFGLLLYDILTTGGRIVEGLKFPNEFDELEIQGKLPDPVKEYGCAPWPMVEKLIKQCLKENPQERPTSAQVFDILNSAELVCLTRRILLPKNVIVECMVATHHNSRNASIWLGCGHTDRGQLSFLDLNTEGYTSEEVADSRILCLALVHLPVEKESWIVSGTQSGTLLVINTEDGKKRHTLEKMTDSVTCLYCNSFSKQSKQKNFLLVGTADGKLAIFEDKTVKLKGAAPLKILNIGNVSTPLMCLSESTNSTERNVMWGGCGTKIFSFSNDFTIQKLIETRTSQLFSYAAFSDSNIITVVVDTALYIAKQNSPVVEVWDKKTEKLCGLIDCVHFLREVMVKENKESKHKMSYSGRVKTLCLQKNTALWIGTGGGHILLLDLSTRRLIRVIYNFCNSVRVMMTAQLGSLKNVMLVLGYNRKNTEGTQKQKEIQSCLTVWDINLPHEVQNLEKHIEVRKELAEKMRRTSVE
row,Structure (SMILES),LRRK2 pIC50
1,"Cc1c(Nc2ncc3cc(Cl)c(C4CCN(C5(C)COC5)CC4)cc3n2)cnn1C12CC(C1)C2 [Ex-2.22, N-[1-(bicyclo[1.1.1]pentan-1-yl)-5-methyl-1H-pyrazol-4-yl]-6-chloro-7-[1-(3-methyloxetan-3-yl)piperidin-4-yl]quinazolin-2-amine]",>9.20
2,"FC(F)Cn1ncc(Nc2ncc3cc(Cl)c(C4CCN(C5COC5)CC4)cc3n2)c1Cl [Ex-4.55, 6-chloro-N-[5-chloro-1-(2,2-difluoroethyl)-1H-pyrazol-4-yl]-7-[1-(oxetan-3-yl)piperidin-4-yl]quinazolin-2-amine]",>9.20
3,"Cc1c(Nc2ncc3cc(Cl)c(C4CCN(C(=O)[C@@H](C)O)C4)cc3n2)cnn1C1CC1 (single isomer, unassigned) [Ex-4.187, (2R)(3S) or (2R)(3R) 1-(3-{6-chloro-2-[(1-cyclopropyl-5-methyl-1H-pyrazol-4-yl)amino]quinazolin-7-yl}pyrrolidin-1-yl)-2-hydroxypropan-1-one]",8.54
4,"CC1OCC1N1CC[C@@H](c2cc3nc(Nc4cnn(CC(C)(C)O)c4Cl)ncc3cc2Cl)[C@H](F)C1 (single isomer, unassigned) [Ex-4.70, (3S,4S)(2R,3R) or (3S,4S)(2S,3S) or (3R,4R)(2R,3R) or (3R,4R)(2S,3S) or (3R,4R)(2S,3R) or (3R,4R)(2R,3S) or (3S,4S)(2S,3R) or (3S,4S)(2R,3S) 1-[5-chloro-4-({6-chloro-7-[3-fluoro-1-(2-methyloxetan-3-yl)piperidin-4-yl]quinazolin-2-yl}amino)-1H-pyrazol-1-yl]-2-methylpropan-2-ol]",7.92
5,"Cc1c(Nc2ncc3cc(Cl)c([C@@H]4CCN([C@H]5COC[C@H]5O)C[C@H]4F)cc3n2)cnn1C (single isomer, unassigned) [Ex-4.256, (3S,4S)(3S,4S) or (3S,4S)(3R,4R) or (3R,4R)(3S,4S) or (3R,4R)(3R,4R) 4-(4-(6-chloro-2-((1,5-dimethyl-1H-pyrazol-4-yl)amino)quinazolin-7-yl)-3-fluoropiperidin-1-yl)tetrahydrofuran-3-ol]",>9.20
6,"Cc1c(Nc2ncc3cc(Cl)c(C4CCN(C5COC5C)CC4)cc3n2)cnn1C(C)(C)C#N (single isomer, unassigned) [Ex-4.133, (2R,3R) or (2S,3S) or (2S,3R) or (2R,3S) 2-[4-({6-chloro-7-[1-(2-methyloxetan-3-yl)piperidin-4-yl]quinazolin-2-yl}amino)-5-methyl-1H-pyrazol-1-yl]-2-methylpropanenitrile]",8.92
7,"Clc1cc2cnc(Nc3cnn(CC4CCC4)c3Cl)nc2cc1C1CCN(C2COC2)CC1 [Ex-4.19, 6-chloro-N-[5-chloro-1-(cyclobutylmethyl)-1H-pyrazol-4-yl]-7-[1-(oxetan-3-yl)piperidin-4-yl]quinazolin-2-amine]",9.17
8,"Cc1cc2cnc(Nc3cc(C(C)(C)C)nn3C)nc2cc1C1CCN([C@]2(C)COC[C@@H]2O)CC1 (single isomer, unassigned) [Ex-5.14, (3S,4S) or (3R,4R) 4-(4-{2-[(3-tert-butyl-1-methyl-1H-pyrazol-5-yl)amino]-6-methylquinazolin-7-yl}piperidin-1-yl)-4-methyloxolan-3-ol]",9.02
9,"CN1CC[C@H](c2cc3nc(Nc4cnn(C5CC5)c4Cl)ncc3cc2Cl)[C@@H](F)C1 (single isomer, unassigned) [Ex-4.40, (3S,4S) or (3R,4R) 6-chloro-N-(5-chloro-1-cyclopropyl-1H-pyrazol-4-yl)-7-(3-fluoro-1-methylpiperidin-4-yl)quinazolin-2-amine]",>9.20
10,"Cc1cc2cnc(Nc3cnn(C4CC4(F)F)c3C)nc2cc1[C@@H]1CCN(C2COCC2F)C[C@H]1F (single isomer, unassigned) [Ex-7.6]",>9.20
